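Interpolation was linear, between the two tested concentrations surrounding the appropriate level; five concentrations were tested over 48 hours in 96-well plates. Here, GI50 denotes the concentration required for 50% inhibition of growth.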 Activity calls are given as the source filed them. Rule as the data show it: active = GI50 up to about 1.1 µM and inactive = higher.
Legend:
Test in all cases: NCI anticancer screen, dose series, 48 h
[1] = system: OVCAR-8
[2] = system: KM12
[3] = system: HCC 2998
[4] = system: SK-MEL-2
[5] = system: TK-10
[6] = system: RXF 393
[7] = system: RPMI-8226
[8] = system: U-251
[9] = system: CAKI-1
[10] = system: ACHN
[11] = system: LXFL 529
[12] = system: NCI-H522
[13] = system: IGROV-1
[14] = system: COLO 205
[15] = system: HOP-18
[16] = system: UACC-62
[17] = system: Malme-3M
[18] = system: EKVX
[19] = system: K562
[20] = system: KM-20L2
[21] = system: 786-0
[22] = system: SF-295
[23] = system: OVCAR-4
[24] = system: SK-MEL-28
[25] = system: HOP-62
[26] = system: SNB-19
[27] = system: NCI-H460
[28] = system: SF-268
[29] = system: NCI-H23
[30] = system: SK-OV-3
[31] = system: NCI-H226
[32] = system: CCRF-CEM
[33] = system: OVCAR-3
[34] = system: SW-620
[35] = system: SN12C
[36] = system: XF498
[37] = system: M19-MEL
[38] = system: SNB-78
[39] = system: HCT-116
[40] = system: HL-60
[41] = system: RXF 631
[42] = system: HT-29
[43] = system: HOP-92
[44] = system: DMS-273
[45] = system: MOLT-4
[46] = system: OVCAR-5
[47] = system: M14
[48] = system: UACC-257
[49] = system: DMS-114
[50] = system: SK-MEL-5
[51] = system: UO-31
[52] = system: A549
[53] = system: LOX IMVI
[54] = system: SF-539
[55] = system: SR
[56] = system: SNB-75
[57] = system: DLD-1
[58] = system: A498

Measured: GI50

CCCCCCCCCC1CC(=O)OC2=C1C(=O)CCC2 (stereo not drawn)
inactive: [1] > 100 µM | [2] > 100 µM | [3] > 100 µM | [4] > 100 µM | [5] > 100 µM | [6] > 100 µM | [7] > 100 µM | [8] > 100 µM | [9] > 100 µM | [10] > 100 µM | [11] > 100 µM | [12] > 100 µM | [13] > 100 µM | [14] > 100 µM | [15] > 100 µM | [16] > 100 µM | [17] > 100 µM | [18] > 100 µM | [19] > 100 µM | [20] > 100 µM | [21] > 100 µM | [22] > 100 µM | [23] > 100 µM | [24] > 100 µM | [25] > 100 µM | [26] > 100 µM | [27] > 100 µM | [28] > 100 µM | [29] > 100 µM | [30] > 100 µM | [31] > 100 µM | [32] > 100 µM | [33] > 100 µM | [34] > 100 µM | [35] > 100 µM | [36] > 100 µM | [37] > 100 µM | [38] > 100 µM | [39] > 100 µM | [40] > 100 µM | [41] > 100 µM | [42] > 100 µM | [43] > 100 µM | [44] > 100 µM | [45] > 100 µM | [46] > 100 µM | [47] > 100 µM | [48] > 100 µM | [49] > 100 µM | [50] > 100 µM | [51] > 100 µM | [52] > 100 µM | [53] > 100 µM | [54] > 100 µM | [55] > 100 µM | [56] > 100 µM | [57] > 100 µM

N#C/C(=C1\OC(=O)C(c2ccc(Br)cc2)=C1O)c1ccc(Br)cc1
inactive: [1] 12.1 µM | [2] 14.9 µM | [3] 15.5 µM | [5] 22.1 µM | [6] 12 µM | [7] 15.1 µM | [8] 13.2 µM | [9] 17.3 µM | [10] 15.7 µM | [11] 10.2 µM | [12] 12.4 µM | [13] 14.2 µM | [14] 17.9 µM | [15] 13.5 µM | [16] 11.6 µM | [17] 16.9 µM | [18] 17.5 µM | [19] 19.3 µM | [20] 17.5 µM | [21] 14.7 µM | [22] 17.7 µM | [23] 16.5 µM | [24] 17.2 µM | [58] 15.5 µM | [25] 19.2 µM | [26] 14.4 µM | [27] 15.7 µM | [28] 14.7 µM | [29] 12.9 µM | [30] 18.5 µM | [31] 18.1 µM | [32] 11.1 µM | [33] 14.9 µM | [34] 14.3 µM | [35] 11.2 µM | [36] 12.9 µM | [37] 14.6 µM | [38] 12.3 µM | [39] 17.3 µM | [40] 11.6 µM | [41] 15.4 µM | [42] 17.3 µM | [43] 16.1 µM | [44] 21.3 µM | [45] 17.2 µM | [46] 19.1 µM | [47] 14.8 µM | [48] 15.3 µM | [49] 12.8 µM | [51] 15.1 µM | [52] 18 µM | [53] 15 µM | [54] 16.1 µM | [55] 17.9 µM | [56] 17.6 µM | [57] 15.8 µM

Reference: ChEMBL document CHEMBL1201862, “PubChem BioAssay data set” (2004)
